Source: the supplement of paper PMC10933113
± gives the uncertainty stated by the source.

Legend:
[1] = tested on: KeratinoSens (HaCaT ARE-luciferase) cells; test: AC50 of Nrf2/ARE luciferase induction; higher = less potent; details: exposure time: 24 h
[2] = tested on: KeratinoSens (HaCaT ARE-luciferase) cells; test: cytotoxicity AC50 (CellTiter-Fluor viability); higher = less cytotoxic; details: exposure time: 24 h
THP-1 = test: efficacy of IL-8 induction relative to DMSO (% activity); higher = stronger induction; details: exposure time: 18 h
[3] = tested on: KeratinoSens (HaCaT ARE-luciferase) cells; test: efficacy of ARE luciferase induction relative to DMSO (% activity over DMSO); higher = stronger induction; details: exposure time: 24 h
[4] = tested on: lysine peptide Ac-RFAAKAA-COOH; test: efficacy of lysine peptide change (negative = depletion) (% activity); higher = less depletion; details: incubation time: 24 h
[5] = tested on: cysteine peptide Ac-RFAACAA-COOH; test: efficacy of cysteine peptide change (negative = depletion) (% activity); higher = less depletion; details: incubation time: 24 h
[6] = tested on: cysteine peptide Ac-RFAACAA-COOH; test: AC50 of cysteine peptide concentration-response (direction given by sign of efficacy); higher = less potent; details: incubation time: 24 h

| efficacy of lysine peptide change [4] | efficacy of cysteine peptide change [5] | Structure (SMILES) | AC50 of Nrf2/ARE luciferase induction [1] [µM] | cytotoxicity AC50 [2] [µM] | efficacy of IL-8 induction (THP-1) | efficacy of ARE luciferase induction [3] | AC50 [6] [µM] |
| --- | --- | --- | --- | --- | --- | --- | --- |
| – | – | CCN(CC)CCNc1ccc(CNC=O)c2sc3ccc(OC)cc3c(=O)c12 | 63.9 | 59.5 ± 26 | 3.79 ± 6.6 | 189 ± 110 | – |
| 7.79 ± 12 | -90.9 ± 5 | Nc1ccccc1N [1,2-Phenylenediamine*] | 34.4 | – | 4.93 ± 5.2 | 88 ± 31 | 1.06 ± 0.49 |
| – | – | C=CC(=O)OCCCCOC(=O)C=C [1,4-Butanediol diacrylate] | 35.5 | 43 ± 2.8 | 16.2 ± 1.7 | 336 ± 19 | – |
| 9.01 ± 17 | -106 ± 3.3 | C=CC(=O)OCCCCCCOC(=O)C=C [1,6-Hexanediol diacrylate] | 35.5 | 43 ± 2.8 | 9.97 ± 9.4 | 343 ± 90 | 50.1 |
| -110 ± 23 | -129 ± 9.8 | C/C=C/C=C/C=O [2,4-Hexadienal] | 73.7 | – | 12.8 ± 12 | 427 ± 46 | 17 ± 5 |
| -4 ± 6.9 | -80.8 ± 14 | CC(C)(C)c1cc(O)c(C(C)(C)C)cc1O [2,5-Di-tert-butylbenzene-1,4-diol] | 42.1 | 34.2 ± 2.2 | 40.9 ± 4.8 | 175 ± 86 | 85.9 ± 5.6 |
| 58.4 ± 17 | -15.7 ± 6.5 | O=C(Nc1ccccc1)c1cc([N+](=O)[O-])ccc1Cl [2-Chloro-5-nitro-N-phenylbenzamide] | 40 | – | 10.4 ± 3 | 92.4 ± 39 | – |
| 0.29 ± 19 | -26 ± 7.3 | Cc1ccc2c(c1[N+](=O)[O-])C(=O)c1ccccc1C2=O [2-Methyl-1-nitroanthraquinone] | 34.8 | – | 12 ± 10 | 81.9 ± 8.7 | – |
| -2.94 ± 13 | -111 ± 7.3 | C=CC(=O)OCCOC(=O)CCC(=O)O [4-[2-(Acryloyloxy)ethoxy]-4-oxobutanoic acid] | 61.3 | – | 0 | 87.4 ± 29 | 34.1 ± 14 |
| – | – | C[C@]12C=CC3=C4CCC(=O)C=C4CC[C@H]3[C@@H]1CC[C@@H]2O [17beta-Trenbolone] | 39.1 | 50.9 ± 20 | 32.2 ± 36 | 189 ± 53 | – |
| 58.5 ± 9.6 | 9.57 ± 11 | Cc1c(C)n(CCN(C)C)c2ccc(C(=O)OCCN(C)C)cc12 [Amindocate] | 29.8 | 28.3 ± 9.3 | -1.77 ± 3.1 | 96.2 ± 38 | – |
| -0.11 ± 7.8 | -84.1 ± 12 | COc1ccc(-c2cc(=S)ss2)cc1 [Anethole trithione] | 22 | 34.2 ± 2.2 | 38.6 ± 10 | 96.9 ± 78 | – |
| 33.7 ± 4.6 | -52.5 ± 14 | O=C(Nc1cccc(Cl)c1)OCC#CCCl [Barban] | 35.5 | 55.2 ± 14 | 34.1 ± 7.5 | 101 ± 30 | – |
| -36.8 ± 14 | -97.8 ± 2.9 | c1ccc2cc3c(ccc4ccccc43)cc2c1 [Benz(a)anthracene] | 40 | – | 32.1 ± 4.5 | 126 ± 33 | 12.2 ± 1.7 |
| 90.8 ± 51 | 0 | O=C(OCc1ccccc1)c1ccc(O)cc1 [Benzylparaben] | 12.1 | – | 0 | 52.2 ± 9.2 | – |
| -31.1 ± 6.5 | -94.7 ± 4 | Oc1ccc2ccccc2c1N=Nc1ccccc1 [C.I. Solvent Yellow 14] | 28.2 | – | 5.32 ± 9.2 | 49.8 ± 19 | 10.8 ± 3.5 |
| 22 ± 20 | -10.9 ± 9.8 | O=c1cc(-c2ccccc2)oc2cc(O)cc(O)c12 [Chrysin] | 53.6 | – | 13.2 ± 3.6 | 210 ± 48 | – |

| Structure (SMILES) | efficacy of lysine peptide change [4] | efficacy of cysteine peptide change [5] | AC50 of Nrf2/ARE luciferase induction [1] [µM] | cytotoxicity AC50 [2] [µM] | efficacy of IL-8 induction (THP-1) | efficacy of ARE luciferase induction [3] | AC50 [6] [µM] |
| --- | --- | --- | --- | --- | --- | --- | --- |
| O=C(CCl)CCl [1,3-Dichloropropanone] | -12.5 ± 16 | -107 ± 9.9 | 40.9 | – | 22.5 ± 6.2 | 84.2 ± 64 | 35.6 ± 4.1 |
| Nc1ccc(N)cc1 [1,4-Benzenediamine] | 61 ± 17 | -107 ± 20 | 39.8 | – | 19.1 ± 5.7 | 54.5 ± 20 | 9.58 ± 2.8 |
| Cc1ccc2c(c1N)C(=O)c1ccccc1C2=O [1-Amino-2-methylanthraquinone] | -8.55 ± 7.6 | -101 ± 4.8 | 37.8 | – | 0 | 55.7 ± 35 | 24.3 ± 3.4 |
| O=C(CCl)c1ccccc1 [2-Chloroacetophenone] | 9.03 ± 16 | -94.1 ± 28 | 35.5 | 57 ± 12 | 29.4 ± 7.2 | 327 ± 92 | 49.4 ± 34 |
| O=c1ssc(Cl)c1Cl [4,5-Dichloro-3H-1,2-dithiol-3-one] | -36.4 ± 2.7 | -102 ± 9.4 | 21.3 | 37.8 ± 11 | 24.5 ± 3.5 | 92.3 ± 9.5 | 1.4 ± 0.39 |
| Nc1ccc(Cl)cc1N [4-Chloro-1,2-diaminobenzene*] | -6.76 ± 18 | -99.1 ± 6 | 13.7 | – | 10.3 ± 2.3 | 70 ± 21 | 5.4 ± 2.3 |
| CCOCN(C(=O)CCl)c1c(C)cccc1CC [Acetochlor] | 79.9 ± 12 | 11.4 ± 11 | 53.6 | 55.2 ± 14 | 8.32 ± 8.4 | 98.8 ± 68 | – |
| CCCCOCN(C(=O)CCl)c1c(CC)cccc1CC [Butachlor] | 2.3 ± 11 | -24.1 ± 21 | 70.8 | 41.4 ± 2.8 | 22.1 ± 11 | 324 ± 31 | – |
| [Cl][Cd][Cl] [Cadmium II chloride] | 4.14 ± 11 | 11.2 ± 30 | 18.9 | 37.3 ± 6.7 | 19.4 ± 2.2 | 146 ± 94 | – |
| Cl/C=C\C[N+]12CN3CN(CN(C3)C1)C2 [Chloroallyl methenamine chloride] | -14.5 ± 14 | -102 ± 6.1 | 73.7 | – | 6.91 ± 6.8 | 1290 ± 60 | 19.6 ± 4.8 |
| Cc1cc(C2CC2)nc(Nc2ccccc2)n1 [Cyprodinil] | 57 ± 8.8 | 6 ± 10 | 35.1 | – | 2.31 ± 4 | 41.8 ± 10 | – |
| C[C@]12CC[C@H](O)C[C@H]1CC[C@@H]1[C@@H]2C[C@@H](O)[C@]2(C)[C@@H](C3=CC(=O)OC3)CC[C@]12O [Digoxigenin] | 68.2 ± 22 | 2.17 ± 3.8 | 5.7 | 4.65 ± 1.6 | 21.1 ± 4.1 | 600 ± 260 | – |
